Measurements from patent US9963674B2, “Age-modified cells and methods for making age-modified cells” (Memorial Sloan-Kettering Cancer Center, priority 2013, dated 2018).

Key:
iPSC-derived fibroblasts = test: Progerin modified-RNA overexpression in iPSC-derived fibroblasts, age-associated markers (immunocytochemistry, MitoSOX); assay type: cell-based, human; conditions: modified-RNA 3 days; young and old donor iPSC-derived fibroblasts; vs nuclear-GFP
Protocol: The following is a protocol for progerin overexpression using modified-RNA in differentiating or differentiated iPSC-derived cells: • 1. Prepare progerin-modified-RNA (methods of synthesis are described in Example 9) and deliver to iPSC-derived somatic cells using Lipofectamine RNAiMAX (Life Technologies) and incubate • a. For iPSC-derived fibroblasts repeat transfection for 3 consecutive days. • i. Note: Amount/duration combination optimizes treatment for minimal toxicity and earliest significant effects. • b. For iPSC-derived dopamine neurons repeat transfection for 5 consecutive days. • i. Note: Amount/duration combination optimizes treatment for minimal toxicity and earliest significant effects. • c. For other iPSC-derived somatic cells perform pilot experiments to determine amount and duration of progerin modified-RNA. • d. Analyze maturation and/or age-associated phenotypes. • Alternatively, expression of progerin can also be achieved through the use of temperature-sensitive Sendai virus expressing progerin. Additionally, expression of progerin can be achieved by using lentivirus.
For overexpression experiments, modified-RNA was thawed on ice and adjusted to a working concentration of 100 ng/μl. Per 100,000-cell transfection, 200 ng of modified-RNA was diluted up to 10 μl in Opti-MEM medium (Life Technologies), vortexed, and incubated at room temperature for 10 minutes. In a separate tube, 0.6 μl Lipofectamine RNAiMAX® (Life Technologies) was diluted up to 10 μl in Opti-MEM and incubated for the same timeframe. The Lipofectamine mixture was then transferred to the tube containing the modified-RNA mixture, vortexed and incubated for an additional 10 minutes. The transfection mixture was added dropwise to cells that had been pre-treated with 200 ng/ml of the interferon inhibitor B18R (eBioscience, San Diego, Calif.) for at least 4 hours prior to transfection.
After 4 hours at 37° C., the entire suspension was replaced with fresh medium supplemented with B18R. Transfection of iPSC-derived fibroblasts was performed starting on day 50 of differentiation and repeated on 2 consecutive days thereafter. iPSC-derived mDA neurons were transfected starting on day 65 or day 120 of differentiation and repeated on 4 consecutive days thereafter. The additional 2 days of transfections were done in order to establish a phenotype in iPSC-derived mDA neurons. Cells were analyzed one day after the final transfection.
(§1) Cells were fixed in 4% paraformaldehyde for 15 minutes. Blocking was performed in phosphate-buffered saline supplemented with 1% BSA, and 0.3% Triton X-100 for 30 minutes to 1 hour. Cells were stained overnight at 4° C. with primary antibodies diluted in blocking buffer. Following several washes, cells were stained with appropriate Alexa Fluor-labeled secondary antibodies (Molecular Probes, Carlsbad, Calif.) at 1:500 in blocking buffer for 30 minutes to 3 hours at room temperature. Cells were counterstained with 4′,6-diamidino-2-phenylindole (DAPI; Thermo Fisher, Rockford, Ill.) to visualize nuclei. Images were acquired with an Olympus IX81 microscope using a Hamamatsu ORCA CCD camera.
Images were acquired on an Operetta (PerkinElmer, Waltham, Mass.) using a 20× objective. Image processing was performed using Harmony high content analysis software (version 3.0).
Passage-matched cells were scored from three independent experiments. […] In these cases, 50 cells per condition were assessed for each independent experiment. […]

iPSC-derived mDA neurons = test: Neurite/dendrite quantification (TUJ1, MAP2) in iPSC-derived mDA neurons; assay type: cell-based, human
Protocol: as §1
Following immunostaining with MAP2 to label dendrites, randomly chosen images of GFP+ cells were manually acquired on an Olympus IX81 microscope using a Hamamatsu ORCA CCD camera using a 40× objective. Dendrite lengths were measured using ImageJ to trace each labeled neurite extending from GFP+ nuclei. Cells with perinuclear MAP2 staining were given a zero. GFP+ nuclei without MAP2 staining as well as cells with condensed GFP+ nuclei were not scored. Fifty cells per condition were assessed for each of three independent differentiations.

GFP-progerin: progerin (truncated lamin A) fused to GFP, SEQ ID No. 2, overexpressed via modified-RNA or hSyn lentivirus
DNA damage (γH2AX) (iPSC-derived fibroblasts): formation of DNA double strand breaks | LAP2α expression (iPSC-derived fibroblasts): loss of LAP2α expression | heterochromatin markers (H3K9me3 and HP1γ) (iPSC-derived fibroblasts): loss of heterochromatin markers | mitochondrial superoxide (MitoSOX) (iPSC-derived fibroblasts): increased mitochondrial dysfunction | nuclear morphology (iPSC-derived fibroblasts): induced nuclear morphology abnormalities | established neurites (TUJ1 staining) (iPSC-derived mDA neurons; 5 days of exposure, differentiated (day 65) mDA neurons): breakdown of established neurites | average dendrite length (MAP2) (iPSC-derived mDA neurons; mDA neurons from young and old donor iPSCs, 5 days): marked reduction in average dendrite length
